The test has as its target T1, Human MDM2 (HDM2) 1-116 (Homo sapiens, UniProt Q00987).
T1 construct: Human MDM2 (HDM2) 1-116
Briefly: Fluorescence polarization assay, MDM2/p53 (Table 3). The test is classed as binding. As for the experimental part:
(§1) Human MDM2 (HDM2) 1-116 (20 μL) and FITC-labeled p53 (18-26), 50 nM and 10 nM respectively in 10 mM Tris, 50 mM NaCl, 0.01% Tween20, and 1 mM DTT at pH 7.4 were dispensed into an opaque, black, 384 well plate. Compounds dissolved in DMSO were pin transferred (˜200 nL) to the 384 well plate containing the MDM2/p53 solution. After incubation for 10 minutes, the fluorescence polarization was read on a Molecular Devices SpectraMax plate reader equipped with a Fluorescein FP cartridge. In addition to probe alone (positive control) and probe/MDM2 (negative control), a titration of linear p53(18-26) was included on every plate as an additional control. IC50 values were fit using either Prism or Collaborative Drug Discovery.
as §1, with “and FAM-labeled RFMDYWEGL-NH2,” for “and FITC-labeled p53 (18-26),”, “NaCl, 0.010%” for “NaCl, 0.01%”, “transferred (˜100-200” for “transferred (˜200”, “for 60” for “for 10”
(In general: In fluorescence polarisation assays a small probe gives low polarisation when free and higher when bound to something large.)

Starred links: 1 amine or outer side, 2 acyl side, 3 side chain; linkers in the order of their positions; H or OH if unused. Non-standard residues stand in square brackets, D forms with d. Residues, ends and D or L forms follow the SMILES beside them. Azetidine3carboxylic = O=C(C1CN([*:1])C1)[*:2]; Phe(4-Cl) = N[C@@H](Cc1ccc(Cl)cc1)C(=O)O; Phe(3-F) = N[C@@H](Cc1cccc(F)c1)C(=O)O; Phe(4-F) = N[C@@H](Cc1ccc(F)cc1)C(=O)O; 3Pal = N[C@@H](Cc1cccnc1)C(=O)O; 2Thi = N[C@@H](Cc1cccs1)C(=O)O; dNMeV = CN[C@@H](C(=O)O)C(C)C; Tle = CC(C)(C)[C@H](N)C(=O)O; NMeV = CN[C@H](C(=O)O)C(C)C; dPip = O=C(O)[C@H]1CCCCN1; NMeA = CN[C@@H](C)C(=O)O; Nme = COCCNCC(=O)O

T1 sequence (Q00987 1-116): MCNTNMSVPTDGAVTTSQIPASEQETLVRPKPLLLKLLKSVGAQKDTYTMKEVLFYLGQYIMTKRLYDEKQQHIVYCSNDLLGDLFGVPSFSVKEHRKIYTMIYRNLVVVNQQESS

As for `C[C@H]1C(=O)N[C@@H](Cc2ccc(F)cc2)C(=O)N[C@@H](C(C)(C)C)C(=O)N[C@@H](Cc2ccc(Cl)cc2)C(=O)N2CCCC[C@@H]2C(=O)N2CCC[C@H]2C(=O)N[C@@H](Cc2ccccc2)C(=O)N2CC(C2)C(=O)N[C@@H](Cc2cccnc2)C(=O)N2CCC[C@@H]2C(=O)N1C` [Compound 19, C[C@@H]1N(C)C(=O)[C@H]2CCCN2C(=O)[C@H](Cc2cccnc2)NC(=O)C2CN(C2)C(=O)[C@H](Cc2ccccc2)NC(=O)[C@@H]2CCCN2C(=O)[C@H]2CCCCN2C(=O)[C@H](Cc2ccc(Cl)cc2)NC(=O)[C@@H](NC(=O)[C@H](Cc2ccc(F)cc2)NC1=O)C(C)(C)C] (cyclo([3Pal][dP][NMeA][Phe(4-F)][Tle][Phe(4-Cl)][dPip]PF[Azetidine3carboxylic])), the IC50 (usually the concentration at which inhibition is half-maximal) is less than 1000 nM. As for `COCCN1CC(=O)N(C)[C@@H](C)C(=O)N[C@@H](Cc2ccc(F)cc2)C(=O)N(C)[C@@H](C)C(=O)N[C@@H](Cc2ccc(Cl)cc2)C(=O)N2CCCC[C@@H]2C(=O)N2CCC[C@H]2C(=O)N[C@@H](Cc2cccs2)C(=O)N[C@@H](C(C)(C)C)C(=O)N[C@@H](Cc2cccnc2)C1=O` [Compound 20, COCCN1CC(=O)N(C)[C@@H](C)C(=O)N[C@@H](Cc2ccc(F)cc2)C(=O)N(C)[C@@H](C)C(=O)N[C@@H](Cc2ccc(Cl)cc2)C(=O)N2CCCC[C@@H]2C(=O)N2CCC[C@H]2C(=O)N[C@@H](Cc2cccs2)C(=O)N[C@H](C(=O)N[C@@H](Cc2cccnc2)C1=O)C(C)(C)C] (cyclo([2Thi][Tle][3Pal][Nme][NMeA][Phe(4-F)][NMeA][Phe(4-Cl)][dPip]P)), the figure is less than 1000 nM. The figure for `COCCN1CC(=O)N(C)[C@@H](C)C(=O)N[C@@H](Cc2ccc(F)cc2)C(=O)N(C)[C@@H](C)C(=O)N[C@@H](Cc2ccc(Cl)cc2)C(=O)N2CCCC[C@@H]2C(=O)N2CCC[C@H]2C(=O)N[C@@H](Cc2ccccc2)C(=O)N[C@@H](C(C)(C)C)C(=O)N[C@@H](Cc2cccnc2)C1=O` [Compound 21, COCCN1CC(=O)N(C)[C@@H](C)C(=O)N[C@@H](Cc2ccc(F)cc2)C(=O)N(C)[C@@H](C)C(=O)N[C@@H](Cc2ccc(Cl)cc2)C(=O)N2CCCC[C@@H]2C(=O)N2CCC[C@H]2C(=O)N[C@@H](Cc2ccccc2)C(=O)N[C@H](C(=O)N[C@@H](Cc2cccnc2)C1=O)C(C)(C)C] (cyclo([3Pal][Nme][NMeA][Phe(4-F)][NMeA][Phe(4-Cl)][dPip]PF[Tle])) is 1000 to 2500 nM; for `COCCN1CC(=O)N(C)[C@@H](C)C(=O)N[C@@H](Cc2ccc(F)cc2)C(=O)N(C)[C@@H](C)C(=O)N[C@@H](Cc2ccc(Cl)cc2)C(=O)N2CCCC[C@@H]2C(=O)N2CCC[C@H]2C(=O)N[C@@H](Cc2ccccc2)C(=O)N[C@@H](C(C)(C)C)C(=O)N[C@@H](Cc2cccc(F)c2)C1=O` [Compound 22, COCCN1CC(=O)N(C)[C@@H](C)C(=O)N[C@@H](Cc2ccc(F)cc2)C(=O)N(C)[C@@H](C)C(=O)N[C@@H](Cc2ccc(Cl)cc2)C(=O)N2CCCC[C@@H]2C(=O)N2CCC[C@H]2C(=O)N[C@@H](Cc2ccccc2)C(=O)N[C@H](C(=O)N[C@@H](Cc2cccc(F)c2)C1=O)C(C)(C)C] (cyclo(F[Tle][Phe(3-F)][Nme][NMeA][Phe(4-F)][NMeA][Phe(4-Cl)][dPip]P)) it is 1000 to 2500 nM; for `COCCN1CC(=O)N(C)[C@@H](C)C(=O)N[C@@H](Cc2ccc(F)cc2)C(=O)N(C)[C@@H](C)C(=O)N[C@@H](Cc2ccc(Cl)cc2)C(=O)N(C)[C@H](C(C)C)C(=O)N2CCC[C@H]2C(=O)N[C@@H](Cc2ccccc2)C(=O)N[C@@H](C(C)(C)C)C(=O)N[C@@H](Cc2cccnc2)C1=O` [Compound 23, COCCN1CC(=O)N(C)[C@@H](C)C(=O)N[C@@H](Cc2ccc(F)cc2)C(=O)N(C)[C@@H](C)C(=O)N[C@@H](Cc2ccc(Cl)cc2)C(=O)N(C)[C@H](C(C)C)C(=O)N2CCC[C@H]2C(=O)N[C@@H](Cc2ccccc2)C(=O)N[C@H](C(=O)N[C@@H](Cc2cccnc2)C1=O)C(C)(C)C] (cyclo([3Pal][Nme][NMeA][Phe(4-F)][NMeA][Phe(4-Cl)][dNMeV]PF[Tle])) it is less than 1000 nM.

Turning to `COCCN1CC(=O)N(C)[C@@H](C)C(=O)N[C@@H](Cc2ccc(F)cc2)C(=O)N(C)[C@@H](C)C(=O)N[C@@H](Cc2ccc(Cl)cc2)C(=O)N(C)[C@H](C(C)C)C(=O)N2CCC[C@H]2C(=O)N[C@@H](Cc2ccccc2)C(=O)N[C@@H](C(C)(C)C)C(=O)N[C@@H](Cc2cccc(F)c2)C1=O` [Compound 24, COCCN1CC(=O)N(C)[C@@H](C)C(=O)N[C@@H](Cc2ccc(F)cc2)C(=O)N(C)[C@@H](C)C(=O)N[C@@H](Cc2ccc(Cl)cc2)C(=O)N(C)[C@H](C(C)C)C(=O)N2CCC[C@H]2C(=O)N[C@@H](Cc2ccccc2)C(=O)N[C@H](C(=O)N[C@@H](Cc2cccc(F)c2)C1=O)C(C)(C)C] (cyclo(F[Tle][Phe(3-F)][Nme][NMeA][Phe(4-F)][NMeA][Phe(4-Cl)][dNMeV]P)), the 50% inhibitory concentration (IC50) fell in the range of 1000 to 2500 nM. The figure for `COCCN1CC(=O)N[C@@H](Cc2ccc(Cl)cc2)C(=O)N2CCCC[C@@H]2C(=O)N2CCC[C@H]2C(=O)N[C@@H](Cc2cccs2)C(=O)N[C@@H](C(C)(C)C)C(=O)N[C@@H](Cc2cccnc2)C(=O)N2CCC[C@@H]2C(=O)N(C)[C@@H](C)C(=O)N[C@@H](Cc2ccc(F)cc2)C1=O` [Compound 25, COCCN1CC(=O)N[C@@H](Cc2ccc(Cl)cc2)C(=O)N2CCCC[C@@H]2C(=O)N2CCC[C@H]2C(=O)N[C@@H](Cc2cccs2)C(=O)N[C@H](C(=O)N[C@@H](Cc2cccnc2)C(=O)N2CCC[C@@H]2C(=O)N(C)[C@@H](C)C(=O)N[C@@H](Cc2ccc(F)cc2)C1=O)C(C)(C)C] (cyclo([2Thi][Tle][3Pal][dP][NMeA][Phe(4-F)][Nme][Phe(4-Cl)][dPip]P)) is less than 1000 nM; for `C[C@H]1C(=O)N[C@@H](Cc2cccnc2)C(=O)N2CCC[C@@H]2C(=O)N(C)[C@@H](C)C(=O)N[C@@H](Cc2ccc(F)cc2)C(=O)N[C@@H](C(C)(C)C)C(=O)N[C@@H](Cc2ccc(Cl)cc2)C(=O)N2CCCC[C@@H]2C(=O)N2CCC[C@H]2C(=O)N[C@@H](Cc2ccccc2)C(=O)N1C` [Compound 26, C[C@@H]1N(C)C(=O)[C@H]2CCCN2C(=O)[C@H](Cc2cccnc2)NC(=O)[C@H](C)N(C)C(=O)[C@H](Cc2ccccc2)NC(=O)[C@@H]2CCCN2C(=O)[C@H]2CCCCN2C(=O)[C@H](Cc2ccc(Cl)cc2)NC(=O)[C@@H](NC(=O)[C@H](Cc2ccc(F)cc2)NC1=O)C(C)(C)C] (cyclo([3Pal][dP][NMeA][Phe(4-F)][Tle][Phe(4-Cl)][dPip]PF[NMeA])) it is less than 1000 nM; for `CC(C)[C@H]1C(=O)N[C@@H](Cc2cccnc2)C(=O)N2CCC[C@@H]2C(=O)N(C)[C@@H](C)C(=O)N[C@@H](Cc2ccc(F)cc2)C(=O)N[C@@H](C(C)(C)C)C(=O)N[C@@H](Cc2ccc(Cl)cc2)C(=O)N2CCCC[C@@H]2C(=O)N2CCC[C@H]2C(=O)N[C@@H](Cc2ccccc2)C(=O)N1C` [Compound 27, CC(C)[C@@H]1N(C)C(=O)[C@H](Cc2ccccc2)NC(=O)[C@@H]2CCCN2C(=O)[C@H]2CCCCN2C(=O)[C@H](Cc2ccc(Cl)cc2)NC(=O)[C@@H](NC(=O)[C@H](Cc2ccc(F)cc2)NC(=O)[C@H](C)N(C)C(=O)[C@H]2CCCN2C(=O)[C@H](Cc2cccnc2)NC1=O)C(C)(C)C] (cyclo([3Pal][dP][NMeA][Phe(4-F)][Tle][Phe(4-Cl)][dPip]PF[NMeV])) it is 1000 to 2500 nM. The figure for `C[C@H]1C(=O)N[C@@H](Cc2ccc(Cl)cc2)C(=O)N2CCCC[C@@H]2C(=O)N2CCC[C@H]2C(=O)N[C@@H](Cc2ccccc2)C(=O)N[C@@H](C(C)(C)C)C(=O)N[C@@H](Cc2cccnc2)C(=O)N2CCCC[C@@H]2C(=O)N(C)[C@@H](C)C(=O)N[C@@H](Cc2ccc(F)cc2)C(=O)N1C` [Compound 28, C[C@@H]1N(C)C(=O)[C@H]2CCCCN2C(=O)[C@H](Cc2cccnc2)NC(=O)[C@@H](NC(=O)[C@H](Cc2ccccc2)NC(=O)[C@@H]2CCCN2C(=O)[C@H]2CCCCN2C(=O)[C@H](Cc2ccc(Cl)cc2)NC(=O)[C@H](C)N(C)C(=O)[C@H](Cc2ccc(F)cc2)NC1=O)C(C)(C)C] (cyclo([3Pal][dPip][NMeA][Phe(4-F)][NMeA][Phe(4-Cl)][dPip]PF[Tle])) is 1000 to 2500 nM; for `COCCN1CC(=O)N(C)[C@@H](C)C(=O)N[C@@H](Cc2ccc(F)cc2)C(=O)N[C@@H](C(C)(C)C)C(=O)N[C@@H](Cc2ccc(Cl)cc2)C(=O)N2CCCC[C@@H]2C(=O)N2CCC[C@H]2C(=O)N[C@@H](Cc2ccccc2)C(=O)N[C@@H](C(C)(C)C)C(=O)N[C@@H](Cc2cccnc2)C1=O` [Compound 29, COCCN1CC(=O)N(C)[C@@H](C)C(=O)N[C@@H](Cc2ccc(F)cc2)C(=O)N[C@H](C(=O)N[C@@H](Cc2ccc(Cl)cc2)C(=O)N2CCCC[C@@H]2C(=O)N2CCC[C@H]2C(=O)N[C@@H](Cc2ccccc2)C(=O)N[C@H](C(=O)N[C@@H](Cc2cccnc2)C1=O)C(C)(C)C)C(C)(C)C] (cyclo([3Pal][Nme][NMeA][Phe(4-F)][Tle][Phe(4-Cl)][dPip]PF[Tle])) it is less than 1000 nM.

For the origin of these results see patent publication US20220411471A1, “CELL-PERMEABLE CYCLIC PEPTIDES AND USES THEREOF” (Unnatural Products Inc., priority 2019, published 2022).
